Measurements reported in patent publication US20120034210A1, “COMPOSITIONS FOR POTENTIATING APOPOSIS SIGNALS IN TUMOUR CELLS” (INSTITUT BERGONIE, priority 2008, published 2012).

Key:
CD95 [1] = experiment: CD95 capping (CD95-CAP), fluorescence confocal microscopy; assay type: cell-based, human; details: leukemic cell lines; culture up to 24 hours
Description: The cells were left to adhere on a slide pre-treated with poly-L-lysin (ESCO, VWR) for 5 minutes then incubated with the different reactants. The cells activated with the anti-Fas APO1-3 agonist antibody were washed and marked directly with the anti-mouse secondary antibody coupled with Alexa555 fluorochrome. The cells incubated with Rituximab (anti-CD20) were washed in a cold PBS buffer then fixed with a PBS/4% PFA (paraformaldehyde) solution for 15 min. […] The cells were washed in PBS medium then the slide was dried and the cells were placed in a mounting medium, Fluoroprep (Biomerieux) and analysed by fluorescence confocal microscopy (LSM SP5, Leica, Germany) with an x63 zoom. The DAPI (200 ng/ml) allowed colouring the nuclei.

CD95 [2] = experiment: CD95 expression; assay type: cell-based, human; details: 2-APB or BAPTA-AM regimens
Description: This technique allowed detecting the presence of a protein on the cell surface. All the steps took place at 4° C. so as to reduce membrane proteins endocytosis and loss of cell labelling.
Plasma membrane of the cells (10^6 cells per marking) was saturated for 5 minutes in 1 ml PBS containing 1% (w/v) BSA (bovine serum albumin) and 1% (v/v) foetal veal serum (FVS). This solution was used for washings and antibody dilutions.
The cells were incubated for 30 minutes with 50 μl primary antibody (anti-Fas DX2 clone at 10 μg/ml), washed twice with the PBS/BSA/FCS solution, then incubated with 50 μl of a secondary antibody coupled with phycoerythrin for 30 minutes. After 3 washings, the cells were re-suspended in 200 μl PBS/BSA/SVF and analysed immediately by flow cytometry (FACsCalibur, BD Biosciences). The fluorescence intensity was analysed with the Cellquest software.

CC(=O)OCOC(=O)CN(CC(=O)OCOC(C)=O)c1ccccc1OCCOc1ccccc1N(CC(=O)OCOC(C)=O)CC(=O)OCOC(C)=O [BAPTA-AM, 1,2-bis-(o-Aminophenoxy)ethane-N,N,N′,N′-tetraacetic tetra-(acetoxymethyl) acid Ester]
CD95-CAP formation (CD95 [1]): drives CD95-CAP | expression of CD95 (CD95 [2]): did not modify the expression of CD95
